Measured values: ChEMBL document CHEMBL1147994 (Bioorg Med Chem Lett, 2007)
pIC50: −log10 of the molar value.

Assays:
[1] = biological target: Dipeptidyl peptidase 8 (Homo sapiens, UniProt Q6V1X1); experiment: Inhibition of DPP8
[2] = biological target: Dipeptidyl peptidase 2 (Homo sapiens, UniProt Q9UHL4); experiment: Inhibition of QPP
[3] = biological target: Dipeptidyl peptidase 9 (Homo sapiens, UniProt Q86TI2); experiment: Inhibition of DPP9

Measured: pIC50

Dipeptidyl peptidase 9, sequence (Q86TI2 whole entry): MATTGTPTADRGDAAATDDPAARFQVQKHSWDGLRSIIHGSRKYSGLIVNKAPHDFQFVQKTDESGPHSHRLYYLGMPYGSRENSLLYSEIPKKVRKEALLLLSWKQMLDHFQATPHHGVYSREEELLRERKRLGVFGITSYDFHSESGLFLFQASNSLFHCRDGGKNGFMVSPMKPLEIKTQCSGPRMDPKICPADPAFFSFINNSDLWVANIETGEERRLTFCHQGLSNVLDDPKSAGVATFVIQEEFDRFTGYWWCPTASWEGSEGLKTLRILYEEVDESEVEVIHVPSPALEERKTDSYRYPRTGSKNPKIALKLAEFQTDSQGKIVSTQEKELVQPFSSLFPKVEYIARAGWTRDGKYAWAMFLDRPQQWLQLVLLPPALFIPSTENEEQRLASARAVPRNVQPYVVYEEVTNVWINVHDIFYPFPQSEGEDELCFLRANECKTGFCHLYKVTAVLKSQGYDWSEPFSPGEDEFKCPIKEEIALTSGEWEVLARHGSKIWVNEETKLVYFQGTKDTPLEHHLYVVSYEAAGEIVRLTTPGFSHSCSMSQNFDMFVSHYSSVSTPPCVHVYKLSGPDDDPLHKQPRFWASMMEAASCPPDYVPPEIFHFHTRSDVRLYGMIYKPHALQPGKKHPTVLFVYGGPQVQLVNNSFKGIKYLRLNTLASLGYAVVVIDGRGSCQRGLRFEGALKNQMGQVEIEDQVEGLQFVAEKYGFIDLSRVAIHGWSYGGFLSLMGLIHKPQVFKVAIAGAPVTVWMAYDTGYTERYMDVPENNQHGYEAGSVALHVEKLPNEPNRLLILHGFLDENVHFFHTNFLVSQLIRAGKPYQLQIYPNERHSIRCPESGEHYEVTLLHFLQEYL
Dipeptidyl peptidase 8, sequence (Q6V1X1 whole entry): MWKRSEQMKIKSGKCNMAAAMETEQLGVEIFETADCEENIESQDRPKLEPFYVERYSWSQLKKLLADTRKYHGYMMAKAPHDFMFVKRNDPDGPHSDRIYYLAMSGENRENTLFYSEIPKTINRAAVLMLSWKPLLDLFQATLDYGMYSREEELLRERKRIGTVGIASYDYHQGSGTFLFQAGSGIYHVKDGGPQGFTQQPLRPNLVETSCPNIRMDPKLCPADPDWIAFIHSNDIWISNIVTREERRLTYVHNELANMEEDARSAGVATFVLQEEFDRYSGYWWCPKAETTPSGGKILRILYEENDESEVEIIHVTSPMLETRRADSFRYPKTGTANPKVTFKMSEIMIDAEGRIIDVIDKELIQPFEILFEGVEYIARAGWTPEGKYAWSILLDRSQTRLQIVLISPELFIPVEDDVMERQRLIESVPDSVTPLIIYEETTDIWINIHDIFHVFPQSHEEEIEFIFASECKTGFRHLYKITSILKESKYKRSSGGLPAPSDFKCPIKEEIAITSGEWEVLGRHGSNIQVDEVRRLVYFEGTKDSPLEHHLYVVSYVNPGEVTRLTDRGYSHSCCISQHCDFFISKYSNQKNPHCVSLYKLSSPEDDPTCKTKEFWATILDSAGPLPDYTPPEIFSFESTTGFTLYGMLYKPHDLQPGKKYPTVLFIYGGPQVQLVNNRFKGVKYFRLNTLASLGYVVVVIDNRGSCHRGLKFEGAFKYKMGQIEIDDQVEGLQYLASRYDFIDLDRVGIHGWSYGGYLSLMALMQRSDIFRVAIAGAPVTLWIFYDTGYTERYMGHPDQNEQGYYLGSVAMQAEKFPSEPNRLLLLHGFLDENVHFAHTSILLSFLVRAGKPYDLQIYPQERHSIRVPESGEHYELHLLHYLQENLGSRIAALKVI

N[C@H]1C[C@H](N2CCn3c(nnc3C(F)(F)F)C2)CC[C@@H]1c1cc(F)c(F)cc1F
< 4.00: all assays above
